In brackets after ≈: the same amount, converted by molar mass. Like-named read-outs stand apart in the source and are kept apart here.

Results on 15 compounds are retold here after patent publication US20220287949A1, “SAFE PARTICLES FOR THE INTRODUCTION OF USEFUL CHEMICAL AGENTS IN THE BODY WITH CONTROLLED ACTIVATION” (priority 2019, published 2022).

The conditions of data set [1]: cited from earlier work.
For data set [2] the following is noted: cited from earlier work. The source holds these as a separate data set.
Data set [3] has as its system NIH 3T3 murine fibroblasts. The experiment in a line: Cytotoxicity of particle components (MTS assay). In kind it is cell-based. The note with it: dye solution in ethanol, NIH 3T3, 24 hours, 37° C. Here is the method: Dye components were each dissolved in ethanol (molecular grade ethanol from Fisher Scientific) to produce a stock solution at 1 mM (B141, M071, and Epolight™ 1117) or 100 μM (C161). For each stock solution, additional dilutions were made at 2×, 4×, 8×, 16×, 32×, 64×, and 128×, and each concentration was tested for cytotoxicity against NIH 3T3 murine fibroblasts in a cytotoxicity test. NIH-3T3 cells were plated in a 96-well culture plate at a density of 10,000 cells per well and allowed to adhere to the surface overnight. Different concentrations of the dye solution were added to the NIH 3T3 cells and incubated for 24 hours at 37° C., in a 5% CO2 incubator. Controls for the cytotoxicity experiment included “live” and “dead” (cells were killed due to osmotic pressure by adding D.I. water). “Live” cells had nothing except cell culture media containing 10% FBS added to them and were used to obtain the 100% viability data. The “dead” control was used to obtain the 0% viability data point. After 24 hours, cells were washed twice with 1× PBS containing calcium and magnesium and 100 μL of media was added at the end. To a final volume of 100 μL of media in the wells, 20 μL of PMS activated MTS reagent was added and incubated for 90 minutes. At the end of the 90 minutes, absorbance was measured at 490 nm using a plate reader (Spectramax M2e, Molecular Devices). Viability of cells was calculated using the absorbance measured for the “live” (100%) and “dead” (0%) controls and the results of % viability estimated from the absorbance for the different concentrations of the dyes were plotted in MS Excel using linear regression curve fitting algorithm to obtain the IC30. All the samples were tested in triplicate and results were averaged over the three repeats.

Data set [4] in a line: Laser triggered changing of color of tattoo particles in gelatin. The note with it: for Abs: M071 at 458 nm, IR at 1064 nm. The procedure:
Procedure: A solution of gelatin was prepared by adding Knox gelatin (1.0 g) to cold water (12.5 g) in a 100 mL glass jar equipped with a magnetic stir bar. The gelatin was stirred 15-30 minutes and then hot water was added (70° C.) until the total weight was 50.0 g. This gelatin was then used in 2.0 gm aliquots. Colorant loaded PMMA-BMA B-805 copolymer particles with 25% VTMS shells as prepared in Example lb above (20-30 mg) were then added to the gelatin solution (2.0 g) and vortexed in a 4 dram vial. The suspension of the tattoo particles in gelatin was then sonicated for 15-30 minutes before transferring to a 5 cm plastic culture dish. The gelatin suspension was spread evenly and allowed to set. It was then covered and stored at 6° C. until used.
Laser exposure was accomplished as follows: The cover for the culture dish was removed and a 5 cm clear plastic cover was cut and fit over the gelatin to prevent splatter. The top surface was then completely irradiated at 1064 nm with a 5 mm spot using fluences ranging from 2.46 J/cm^2 to 5.09 J/cm^2 using a Nd-YAG Q-switched Lutronic laser (Lutronic Spectra™ VRM II Laser with four distinct Q-switched mode wavelengths: 1064 nm, 532 nm, 585 nm, 650 nm, nano second pulse width, and spectra peak energy: 60 MW, 120 MW and 240 MW).
After irradiating the top surface, the culture dish was covered with its lid, turned over and irradiated from the opposite side to reach any unexposed particles visible only from the bottom side.
Following the complete irradiation, the plastic cover was removed and any adhered gelatin was transferred to a 10 ml centrifuge tube. The gelatin from the culture dish was also removed and transferred to the centrifuge tube with the aid of about 5 ml of water. The culture tube was rinsed with water and any suspended gelatin transferred by pipette to the centrifuge tube. The material in the tube was sonicated until the gelatin was redissolved (20-30 minutes, about 40° C.).
The sample was centrifuged for 20 minutes and the supernatant was removed. The recovered particles were slurried again with water, centrifuged, and the wash water removed. The resultant particles were dried in vacuum at room temperature and analyzed spectroscopically for the presence of dyes as in 2b above.
The standard fluence for removal of tattoo color in designs using these particles is 3.51 J/cm^2. 5.09 J/cm^2 is the maximum fluence on the Lutronic laser using a 5 mm spot. The laser triggered color changing tests were performed on 2 μm 5:1 Y197 (12.5% Y197:6.25% IR 1117), 2 μm 7:1 M071 (6.25% M071, 8.0 wt. % IR 1117), 2 μm 5:1 PBS (2.56 wt. % B141, 0.77 wt. % C161, 0.39 wt. % M071, 1.28 wt. % Y184, 8.0 wt. % IR1117), 2 μm 5:1 Y184 (12.5 wt. % Y184, 8.0 wt. % IR 1117) particles in the entries 21-24 of Table 3 above.(the numeric ratio is weight ratio of PMMA-BMA B-805 copolymer to colorant in the particle)

The nature of data set [5]: Surfactant-based extractable test (dye leaching into 1% SDS). In kind it is physicochemical. The procedure: Dried particles (50 mg) were added to 3 mL of 1% sodium dodecyl sulfate to form a dispersion. The dispersion was sonicated for approximately 1 hour. The dispersion was centrifuged, and the supernatant component was withdrawn and filtered through a […] syringe filter. The absorbance spectrum of the filtrate was measured from 400-1300 nm using Shimadzu UV-3600 UV/VIS/NIR Spectrophotometer in a 1 cm cell.
The amount of the dye leached is calculated as in 2b above by applying Beer's law (Eq. 1) to give leachate concentrations. Leaching reduction is defined as the percentage of dye leached from coated particles when compared to uncoated particles of the same structure.
Portions of these particles were coated with several different shell thicknesses as described in Example lb above and tested for effectiveness in preventing dye leaching following the surfactant-based extractable test described in section Example 3b. […]

[6] abbreviates: 2 μm 5% PB5 particles, 25% VTMS shell, fluence 0 J/cm^2 (no laser).
Where [7] appears, read: 2 μm 5% PB5 particles, 1064 nm laser, fluence 3.51 J/cm^2.
Where [8] appears, read: 2 μm 5% PB5 particles, 1064 nm laser, fluence 4.28 J/cm^2.
[9] abbreviates: 2 μm 5% PB5 particles, 1064 nm laser, fluence 5.09 J/cm^2.
[10] abbreviates: 2 μm 7:1 M071 particles, 25% VTMS shell, fluence 0 J/cm^2 (no laser).
Where [11] appears, read: 2 μm 7:1 M071 particles, 1064 nm laser, fluence 2.46 J/cm^2.
[12] abbreviates: 2 μm 7:1 M071 particles, 1064 nm laser, fluence 3.03 J/cm^2.
Where [13] appears, read: 2 μm 7:1 M071 particles, 1064 nm laser, fluence 3.51 J/cm^2.
[14] abbreviates: 2 μm 7:1 M071 particles, 1064 nm laser, fluence 4.28 J/cm^2.
The mark [15] stands for this setting: 2 μm 7:1 M071 particles, 1064 nm laser, fluence 5.09 J/cm^2.
The mark [16] stands for this setting: Table 7B: 0.5 μm 2:1 PB4 particles with a 25% VTMS shell vs uncoated.

On to `C[N+](C)(C)CCN` [Cholamine chloride], for which the “pKa at 20° C.” value in data set [1] is on record as 7.10. The “Solubility in water at 0° C.” value in data set [2] ((as HCl)) was 4.2 M.
As to `O=S(=O)(O)CCCN1CCN(CCO)CC1` [HEPPS, 3-[4-(2-Hydroxyethyl)piperazin-1-yl]propane-1-sulfonic acid], the “pKa at 20° C.” value in data set [1] is reported as 8.1. The “Solubility in water at 0° C.” value in data set [2] is given as “Large”.
`NCC(N)=O` [Glycinamide]: the “pKa at 20° C.” value in data set [1] is recorded as 8.2. Moreover, in data set [2] ((as HCl)), the “Solubility in water at 0° C.” value is 6.4 M (≈ 474 mg/mL).
Take `O=S(=O)(O)CCN1CCN(CCS(=O)(=O)O)CC1` [PIPES, piperazine-N,N′-bis(2-ethanesulfonic acid)]: the “pKa at 20° C.” value in data set [1] is 6.82.
As to “3,6-bis[(2-chlorophenyl)methylamino]-9-[2-[[[(1,1-dimethylethoxy)carbonyl]methylamino]sulfonyl]phenyl]-xanthylium [M071]”, the entries for the “IC30 (70% viability)” value in data set [3] and in data set [3] (listed as Magenta) were 63.23 μM^a and “about 61 μM”, respectively. Moreover, the “% Reduction” value in data set [4] (setting [6]) came to 0%; in data set [4] (setting [7]) it was 30%; in data set [4] (setting [8]), 30%; in data set [4] (setting [9]) it was 30%; in data set [4] (setting [10]), 0%; in data set [4] (setting [11]), 23%. Further, the “% Reduction” value was 30% in data set [4] (setting [12]), 34% in data set [4] (setting [13]), 47% in data set [4] (setting [14]) and 43% in data set [4] (setting [15]). The Abs in data set [4] (setting [6]) is reported as 0.023; in data set [4] (setting [7]), 0.016; in data set [4] (setting [8]), 0.016; in data set [4] (setting [9]) it was 0.016; in data set [4] (setting [10]), 0.207; in data set [4] (setting [11]) it was 0.159. The Abs is 0.146 in data set [4] (setting [12]), 0.137 in data set [4] (setting [13]), 0.109 in data set [4] (setting [14]) and 0.119 in data set [4] (setting [15]). The “fluence at which the dye decay levels off” value in data set [4] (1064 nm laser, particles in gelatin) came to 4.28 J/cm^2. Further, the “decay (reduction) after laser irradiation” value in data set [4] (M071 particles, 1064 nm laser, fluences 2.46 to 5.09 J/cm^2) was “about 50%”.
In the case of `O=S(=O)(O)CC(O)CN1CCN(CCO)CC1` (stereo not shown) [HEPPSO], the “Solubility in water at 0° C.” value in data set [2] is 2.2 M (≈ 590 mg/mL).
Regarding `O=S(=O)(O)CCCNC1CCCCC1` [CAPS], the “pKa at 20° C.” value in data set [1] is 10.4.
Take `CC(C)(CO)NCCCCS(=O)(=O)O` [AMPB]: the “pKa at 20° C.” value in data set [1] is listed as 8.8.
On to “6-(dibutylamino)-9-[2-[[[(1,1-dimethylethoxy)carbonyl](methylsulfonyl)amino]methyl]phenyl]-3-methyl-2-(phenylamino)-xanthylium [B141]”, for which the “IC30 (70% viability)” value in data set [3] is on record as 61.22 μM^a; in data set [3] (listed as Black), “about 61 μM”.
Regarding `O=S(=O)(O)CCCNC(CO)(CO)CO` [TAPS], in data set [2], the “Solubility in water at 0° C.” value is “Large”.
As to “3,6-bis(2,3-dihydro-1H-indol-1-yl)-9-[2-[[[(1,1-dimethylethoxy)carbonyl]methylamino]sulfonyl]phenyl]-xanthylium [C161]”, the entries for the “IC30 (70% viability)” value in data set [3] and in data set [3] (listed as Cyan dye) were 14.65 μM^a and “about 14 μM”, respectively.
Turning to `NC(=O)CN(CC(=O)O)CC(=O)O` [ADA, 2-[(2-amino-2-oxoethyl)-(carboxymethyl)amino]acetic acid], the “pKa at 20° C.” value in data set [1] was 6.62.
Turning to `O=S(=O)(O)CC(O)CN1CCOCC1` (stereo not shown) [MOPSO, 2-hydroxy-3-morpholin-4-ylpropane-1-sulfonic acid], the “Solubility in water at 0° C.” value in data set [2] was 0.75 M (≈ 169 mg/mL).
As for “9-[2-[[[(1,1-dimethylethoxy)carbonyl]methylamino]sulfonyl]phenyl]-3,6-diphenoxy-xanthylium [Y161]”, the Leachate concentration in data set [5] (Table 7B: 0.5 μm 2:1 PB4 particles with a 25% VTMS shell) stood at 1.2 µM. In addition, in data set [5] (setting [16]), the “Leaching reduced to” value is on record as 1.4% and the “Reduction Factor” value is recorded as 72.6. In addition, in data set [5] (Table 7B: 0.5 μm 2:1 PB4 particles, uncoated particle), the Leachate concentration worked out at 87.1 µM.
`O=S(=O)(O)CC(O)CNC(CO)(CO)CO` (stereo not shown) [TAPSO, 3-[[1,3-dihydroxy-2-(hydroxymethyl)propan-2-yl]amino]-2-hydroxypropane-1-sulfonic acid]: in data set [2], the “Solubility in water at 0° C.” value is 1.0 M (≈ 259 mg/mL).

The term pKa denotes the pH at which an ionisable group is half protonated.
